In PubChem BioAssay AID330 (DTP/NCI, 2004):
Where “and” joins values, the source holds several entries; their conditions need not be identical. Equal values may be shown once. Toxic doses and inconclusive results are not listed.

Test system: P388 leukemia ip, CD2F1 mice, survival T/C
Test: NCI In Vivo Anticancer Drug Screen. Data for tumor model P388 Leukemia (intraperitoneal) in CD2F1 (CDF1) mice
Details: endpoint: median survival time, higher = longer survival
How it was run: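 Mice carrying the transplanted tumor received test compound or vehicle. Survival was recorded in each group, and the value is the treated-group measurement divided by that of the vehicle-treated control group.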

[1] = dose: 100.0 mg/kg/injection, schedule: Q01DX009 (ip), vehicle: saline
[2] = dose: 200.0 mg/kg/injection, schedule: Q01DX009 (ip), vehicle: saline
[3] = dose: 400.0 mg/kg/injection, schedule: Q01DX009 (ip), vehicle: saline
[4] = dose: 100.0 mg/kg/injection, schedule: Q04DX003 (ip), vehicle: saline
[5] = dose: 200.0 mg/kg/injection, schedule: Q04DX003 (ip), vehicle: saline
[6] = dose: 400.0 mg/kg/injection, schedule: Q04DX003 (ip), vehicle: saline
[7] = dose: 100.0 mg/kg/injection, schedule: Q01DX009 (ip), vehicle: saline with Tween-80
[8] = dose: 200.0 mg/kg/injection, schedule: Q01DX009 (ip), vehicle: saline with Tween-80
[9] = dose: 25.0 mg/kg/injection, schedule: Q01DX005 (ip), vehicle: saline with Tween-80
[10] = dose: 50.0 mg/kg/injection, schedule: Q01DX005 (ip), vehicle: saline with Tween-80
[11] = dose: 100.0 mg/kg/injection, schedule: Q01DX005 (ip), vehicle: saline with Tween-80
[12] = dose: 60.0 mg/kg/injection, schedule: Q01DX005 (ip), vehicle: Klucel (hydroxypropylcellulose) (HPC)
[13] = dose: 120.0 mg/kg/injection, schedule: Q01DX005 (ip), vehicle: Klucel (hydroxypropylcellulose) (HPC)
[14] = dose: 12.5 mg/kg/injection, schedule: Q01DX009 (ip), vehicle: saline
[15] = dose: 25.0 mg/kg/injection, schedule: Q01DX009 (ip), vehicle: saline
[16] = dose: 50.0 mg/kg/injection, schedule: Q01DX009 (ip), vehicle: saline
[17] = dose: 50.0 mg/kg/injection, schedule: Q01DX009 (ip), vehicle: saline with Tween-80
[18] = dose: 100.0 mg/kg/injection, schedule: Q04DX003 (ip), vehicle: Klucel (hydroxypropylcellulose) (HPC)
[19] = dose: 200.0 mg/kg/injection, schedule: Q04DX003 (ip), vehicle: Klucel (hydroxypropylcellulose) (HPC)
[20] = dose: 200.0 mg/kg/injection, schedule: Q01DX005 (ip), vehicle: saline with Tween-80

## OCC1OC(OC2(CO)OC(CO)C(O)C2O)C(O)C(O)C1O (configuration not stated)
dose: 4.0 mg/kg/injection, schedule: Q01DX005 (ip), vehicle: saline
  T/C: 98 % of control
dose: 8.0 mg/kg/injection, schedule: Q01DX005 (ip), vehicle: saline
  T/C: 96 % of control
dose: 32.0 mg/kg/injection, schedule: Q01DX005 (ip), vehicle: saline
  T/C: 96 % of control
dose: 64.0 mg/kg/injection, schedule: Q01DX005 (ip), vehicle: saline
  T/C: 97 % of control
[1]
  T/C: 97 % of control
dose: 128.0 mg/kg/injection, schedule: Q01DX005 (ip), vehicle: saline
  T/C: 99 % of control
[2]
  T/C: 97 % of control
dose: 256.0 mg/kg/injection, schedule: Q01DX005 (ip), vehicle: saline
  T/C: 98 % of control
[3]
  T/C: 98 % of control
dose: 512.0 mg/kg/injection, schedule: Q01DX005 (ip), vehicle: saline
  T/C: 100 % of control
dose: 1024.0 mg/kg/injection, schedule: Q01DX005 (ip), vehicle: saline
  T/C: 106 % of control
dose: 2048.0 mg/kg/injection, schedule: Q01DX005 (ip), vehicle: saline
  T/C: 108 % of control

## CC(=O)CCC(=O)[O][Bi]([c]1ccccc1)[c]1ccccc1
dose: 50.0 mg/kg/injection, schedule: Q01DX005 (ip), vehicle: Klucel (hydroxypropylcellulose) (HPC)
  T/C: 110 % of control
dose: 100.0 mg/kg/injection, schedule: Q01DX005 (ip), vehicle: Klucel (hydroxypropylcellulose) (HPC)
  T/C: 114 % of control
dose: 200.0 mg/kg/injection, schedule: Q01DX005 (ip), vehicle: Klucel (hydroxypropylcellulose) (HPC)
  T/C: 114 % of control

## CC(=O)CC(c1ccccc1)C(C(=O)O)c1ccccc1 (configuration not stated)
[4]
  T/C: 93 % of control
[5]
  T/C: 100 % of control
[6]
  T/C: 100 % of control

## Cc1ncc([N+](=O)[O-])n1CCSC(N)=O
dose: 50.0 mg/kg/injection, schedule: Q04DX003 (ip), vehicle: saline
  T/C: 102 % of control and 105 % of control
[4]
  T/C: 102 % of control and 114 % of control
[5]
  T/C: 100 % of control and 114 % of control
[6]
  T/C: 100 % of control and 120 % of control

## O=C1CCCC1(c1ccccc1)c1ccccc1
[7]
  T/C: 90 % of control
[8]
  T/C: 95 % of control
dose: 400.0 mg/kg/injection, schedule: Q01DX009 (ip), vehicle: saline with Tween-80
  T/C: 95 % of control

## COC1CCC(Sc2cccc[n+]2CC(C)=O)CC1OC (configuration not stated)
dose: 12.5 mg/kg/injection, schedule: Q01DX005 (ip), vehicle: saline with Tween-80
  T/C: 100 % of control
[9]
  T/C: 99 % of control
[10]
  T/C: 98 % of control and 101 % of control
[11]
  T/C: 102 % of control

## COc1cc(C2c3cc4c(cc3OC3(N5CCCC5)CCCC23)OCO4)cc(OC)c1OC (configuration not stated)
[12]
  T/C: 96 % of control
[13]
  T/C: 97 % of control
dose: 240.0 mg/kg/injection, schedule: Q01DX005 (ip), vehicle: Klucel (hydroxypropylcellulose) (HPC)
  T/C: 96 % of control

## CCOC(=O)C1=C(C)NC(C)=C(C(=O)OCC)C1C
[1]
  T/C: 102 % of control
[2]
  T/C: 89 % of control

## COC(=O)C1CCCCC1C(=O)OC (configuration not stated)
[14]
  T/C: 108 % of control
[15]
  T/C: 104 % of control and 111 % of control
[16]
  T/C: 104 % of control
[1]
  T/C: 100 % of control and 101 % of control (2×)
[2]
  T/C: 110 % of control

## CC(C)c1cc2c(cc1O)C[C@@]1(O)CCCC(C)(C)C1CC2 (some centres not stated)
dose: 7.0 mg/kg/injection, schedule: Q01DX005 (ip), vehicle: other
  T/C: 100 % of control
dose: 14.0 mg/kg/injection, schedule: Q01DX005 (ip), vehicle: other
  T/C: 100 % of control
dose: 28.0 mg/kg/injection, schedule: Q01DX005 (ip), vehicle: other
  T/C: 104 % of control
dose: 56.0 mg/kg/injection, schedule: Q01DX005 (ip), vehicle: other
  T/C: 99 % of control

## COc1ccc(OC)c(Cc2cnc3nc(N)nc(N)c3c2C)c1
dose: 10.0 mg/kg/injection, schedule: Q01DX005 (ip), vehicle: dextrose
  T/C: 113 % of control
dose: 10.0 mg/kg/injection, schedule: Q01DX005 (ip), vehicle: water
  T/C: 112 % of control
dose: 25.0 mg/kg/injection, schedule: Q04DX003 (ip), vehicle: dextrose
  T/C: 115 % of control
dose: 40.0 mg/kg/injection, schedule: Q01DX005 (ip), vehicle: dextrose
  T/C: 170 % of control
dose: 100.0 mg/kg/injection, schedule: Q04DX003 (ip), vehicle: dextrose
  T/C: 166 % of control

## ClCC1CSC2(CCCCC2)O1 (configuration not stated)
[17]
  T/C: 104 % of control and 115 % of control
[7]
  T/C: 100 % of control and 119 % of control
[8]
  T/C: 97 % of control

## O=C(Nc1cc(Cl)ccc1Cl)Nc1ccc(Cl)cc1C(=O)c1ccccc1
dose: 15.0 mg/kg/injection, schedule: Q01DX005 (ip), vehicle: saline with Tween-80
  T/C: 89 % of control
dose: 30.0 mg/kg/injection, schedule: Q01DX005 (ip), vehicle: saline with Tween-80
  T/C: 90 % of control
dose: 240.0 mg/kg/injection, schedule: Q01DX005 (ip), vehicle: saline with Tween-80
  T/C: 90 % of control

## CCCCN(CCO)CC(O)Cn1cnc2c(N)ncnc21 (configuration not stated) (tested in a mixture with another compound)
dose: 60.0 mg/kg/injection, schedule: Q01DX005 (ip), vehicle: saline
  T/C: 94 % of control
dose: 120.0 mg/kg/injection, schedule: Q01DX005 (ip), vehicle: saline
  T/C: 97 % of control
dose: 240.0 mg/kg/injection, schedule: Q01DX005 (ip), vehicle: saline
  T/C: 94 % of control

## CCOC(=O)CCC(NC(=O)OCCNCCCl)C(=O)OCC (configuration not stated)
[1]
  T/C: 86 % of control
[2]
  T/C: 86 % of control
[3]
  T/C: 95 % of control

## CCCCCCC1(/C=C/c2ccc(Cl)c(Cl)c2)OCCS1 (configuration not stated)
[14]
  T/C: 96 % of control
[15]
  T/C: 104 % of control
[16]
  T/C: 100 % of control and 109 % of control and 95 % of control
[1]
  T/C: 95 % of control
[2]
  T/C: 88 % of control

## CNC(=O)Oc1cccc2c(OC3OC(CO)C(O)C(O)C3O)cccc12 (configuration not stated)
[18]
  T/C: 97 % of control
[19]
  T/C: 106 % of control
dose: 400.0 mg/kg/injection, schedule: Q04DX003 (ip), vehicle: Klucel (hydroxypropylcellulose) (HPC)
  T/C: 101 % of control

## C/C(CCl)=N\NC1=NC2(CCCCC2)P(=O)(NNc2ncccn2)S1 (configuration not stated)
dose: 37.5 mg/kg/injection, schedule: Q01DX005 (ip), vehicle: Klucel (hydroxypropylcellulose) (HPC)
  T/C: 103 % of control
[12]
  T/C: 102 % of control
dose: 75.0 mg/kg/injection, schedule: Q01DX005 (ip), vehicle: Klucel (hydroxypropylcellulose) (HPC)
  T/C: 102 % of control
[13]
  T/C: 100 % of control

## O=C(O)c1ccccc1NC(c1ccccc1)c1ccc2cccnc2c1O (configuration not stated)
[18]
  T/C: 114 % of control and 115 % of control
[19]
  T/C: 113 % of control and 119 % of control

## CCC[CH2][Sn](=[S])[CH2]CCC
dose: 1.56 mg/kg/injection, schedule: Q01DX009 (ip), vehicle: other
  T/C: 116 % of control

## CCN(CC)c1ccc2cc(-c3nc4ccccc4[nH]3)c(=O)oc2c1
dose: 12.5 mg/kg/injection, schedule: Q01DX009 (ip), vehicle: saline with Tween-80
  T/C: 96 % of control
dose: 25.0 mg/kg/injection, schedule: Q01DX009 (ip), vehicle: saline with Tween-80
  T/C: 95 % of control
[17]
  T/C: 88 % of control and 98 % of control
[7]
  T/C: 95 % of control

## N#CC1(NO)CCCC1
[16]
  T/C: 94 % of control
[1]
  T/C: 98 % of control
[2]
  T/C: 89 % of control

## c1ccc(CC2NCCc3c2[nH]c2ccccc32)cc1 (configuration not stated)
[10]
  T/C: 100 % of control
[11]
  T/C: 99 % of control
[20]
  T/C: 94 % of control

## Cn1c(=O)c2nc(-c3ccc(Cl)cc3)c(-c3ccc(Cl)cc3)nc2n(C)c1=O
dose: 50.0 mg/kg/injection, schedule: Q01DX001 (ip), vehicle: saline with Tween-80
  T/C: 102 % of control
dose: 100.0 mg/kg/injection, schedule: Q01DX001 (ip), vehicle: saline with Tween-80
  T/C: 102 % of control
dose: 200.0 mg/kg/injection, schedule: Q01DX001 (ip), vehicle: saline with Tween-80
  T/C: 110 % of control

## CN1[C@H]2C=CC(=O)[C@]1(Cl)[C@H]1C(=O)N(c3ccccc3)C(=O)[C@@H]21
[9]
  T/C: 106 % of control
[10]
  T/C: 109 % of control
[11]
  T/C: 105 % of control
[20]
  T/C: 118 % of control
